Five compounds from patent publication US9150505B2, “Prophylactic or therapeutic agent for diabetes or obesity” (AJINOMOTO CO., INC., priority 2010, dated 2015) can be followed below.

What is called pEC50 is the negative decadic logarithm of the EC50, by convention in mol/L. Read a high pEC50 as a small EC50.

Experiment [1] deals with NCI-H716 cells. Put plainly: Promotion of GLP-1 secretion in NCI-H716 cells. The format is cell-based, human. The note with it: 30 minutes at 37° C., buffer assumed to be 1.0. As for the experimental part:
Human appendix-derived cell line NCI-H716 (ATCC No CCL-251) was cultured in a 10% FBS-containing DMEM/HamF-12 medium at 37° C. in the presence of 5% CO2. NCI-H716 cells were seeded in a poly-D-lysine-coated 96-well plate at 100,000 cells/well and cultured for two days. Prior to sample addition, wells were washed with Hepes buffer (20 mM Hepes, 146 mM NaCl, 5 mM KCl, 1.5 mM CaCl2, 1 mM MgSO4, 5.5 mM D-glucose, 0.2% BSA, pH 7.4). Fifty μl of a sample solution dissolved in the same buffer was added and incubated at 37° C. for 30 minutes. The above-described compounds in Example 6 (Compound 1) (10 mM), Example 48 (Compound 2) (5 mM) and Example 14 (Compound 3) (2 mM) were used as the samples. In addition, a Hepes buffer was used as a control. After collecting the supernatant, the cells were precipitated by centrifugation (5,000×g, 1 min.) to collect the supernatant thereof. GLP-1 level in the supernatant was determined as described below according to a quantitative method for GLP-1 that uses GLP-1 receptor gene expression cells.
According to a routine method (Lopez de Maturana R, Willshaw A, Kuntzsch A, Rudolph R, Donnelly D. J Biol Chem. 2003 Mar. 21; 278 (12):10195-200), human GLP-1 receptor gene (Nucleotide sequence 1) was integrated into pcDNA3.1 to prepare human GLP-1 receptor gene expression plasmid hGLP-1R/pcDNA3.1. Moreover, chimeric gene (Nucleotide sequence 2) of human Gα15 gene and human gustducin gene was integrated into pcDNA3.1 to prepare G protein expression plasmid Gα15-gust/pcDNA3.1. […] After 24 hours of cultivation in a CO2 incubator, changes in the fluorescence intensity were determined starting immediately after sample addition according to the Ca^2+ fluorescence indicator FLIPR Calcium 4 Assay Kit protocol (Molecular Devices) using FlexStation (Molecular Devices). Concentration dependency of human GLP-1 (7-36 Amide; Peptide Institute) with respect to the changes in the fluorescence intensity was determined and used as a standard curve for quantitating the sample. […]

For experiment [2], the system named is NCI-H716 cells. Description: Promotion of CCK secretion in NCI-H716 cells. The format is cell-based, human. As for the experimental part:
Human appendix-derived cell line NCI-H716 (ATCC No CCL-251) was cultured in a 10% FBS-containing DMEM/HamF-12 medium at 37° C. in the presence of 5% CO2. NCI-H716 cells were seeded in a poly-D-lysine-coated 24-well plate at 600,000 cells/well and cultured for two days. Prior to sample addition, wells were washed with Hepes buffer (20 mM Hepes, 146 mM NaCl, 5 mM KCl, 1.5 mM CaCl2, 1 mM MgSO4, 5.5 mM D-glucose, 0.02% BSA, pH 7.4). 300 μl of a sample solution dissolved in the same buffer was added and incubated at 37° C. for 30 minutes. Compound 1 in Example 6 (2 mM) and Compound 2 in Example 48 (1 mM) were used as the samples. In addition, a Hepes buffer was used as a control. After collecting the supernatant, the cells were precipitated by centrifugation (5,000×g, 1 min.) to collect the supernatant thereof, which was lyophilized in Speed Vac Concentrator (SAVANT) and dissolved by addition of 60 μl of water. CCK level in the solution was determined using Enzyme immuno assay kit (EK-069-04; PHENOIX PHARMACEUTICALS).

For another experiment, the target named is T1, human CaSR (Homo sapiens, UniProt P41180).
T1 construct: expressed in transfected cells; host or cells: 293E cells (EBNA1-expressing HEK293, ATCC No. CRL-10852), transient transfection of hCaSR/pcDNA3.1
T1 sequence (P41180 20-1078): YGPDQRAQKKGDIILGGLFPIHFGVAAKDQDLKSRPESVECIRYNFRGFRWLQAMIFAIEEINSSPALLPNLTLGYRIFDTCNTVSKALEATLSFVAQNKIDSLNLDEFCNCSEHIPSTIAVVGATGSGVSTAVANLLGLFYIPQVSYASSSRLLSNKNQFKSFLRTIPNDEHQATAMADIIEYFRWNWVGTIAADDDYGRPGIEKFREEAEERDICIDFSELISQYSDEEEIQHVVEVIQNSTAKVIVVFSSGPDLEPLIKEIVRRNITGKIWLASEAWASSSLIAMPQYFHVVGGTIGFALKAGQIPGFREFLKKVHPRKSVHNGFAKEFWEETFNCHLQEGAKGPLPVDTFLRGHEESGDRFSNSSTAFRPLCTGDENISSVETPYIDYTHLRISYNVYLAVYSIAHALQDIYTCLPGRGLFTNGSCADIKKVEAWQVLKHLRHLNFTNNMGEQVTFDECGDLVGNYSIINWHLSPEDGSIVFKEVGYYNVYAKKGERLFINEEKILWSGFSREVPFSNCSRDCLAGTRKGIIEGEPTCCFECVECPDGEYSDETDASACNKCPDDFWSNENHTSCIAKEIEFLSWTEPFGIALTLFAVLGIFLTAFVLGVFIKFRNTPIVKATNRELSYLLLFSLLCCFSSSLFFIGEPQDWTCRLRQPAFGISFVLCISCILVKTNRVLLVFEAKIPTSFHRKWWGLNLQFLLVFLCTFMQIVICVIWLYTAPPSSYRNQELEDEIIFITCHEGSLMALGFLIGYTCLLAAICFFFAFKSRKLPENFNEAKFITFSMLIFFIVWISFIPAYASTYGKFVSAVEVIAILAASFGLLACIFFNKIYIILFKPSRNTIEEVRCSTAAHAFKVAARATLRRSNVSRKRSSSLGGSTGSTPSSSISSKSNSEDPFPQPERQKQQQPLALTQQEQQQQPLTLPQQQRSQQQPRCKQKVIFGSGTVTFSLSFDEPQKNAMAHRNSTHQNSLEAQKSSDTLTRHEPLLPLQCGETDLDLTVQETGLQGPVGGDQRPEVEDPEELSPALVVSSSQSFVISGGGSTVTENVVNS
Description: Assessment of CaSR agonistic activity (Ca2+ fluorescence, FLIPR, hCaSR-transfected 293E cells). The format is cell-based. The note with it: human CaSR-expressing 293E cells, 1.5 mM CaCl2 assay buffer, 3-minute change in fluorescence intensity. As for the experimental part:
CaSR gene was prepared according to the method described in Example 1 of WO07/55393. The resulting recombinant plasmid was used to generate human CaSR-expressing plasmid hCaSR/pcDNA3.1.
293E cells (EBNA1-expressing IIEK293 cells, ATCC No. CRL-10852) were cultured in DMEM ([…] Glucose-containing Dulbecco's modified Eagle medium, Nacalai Tesque) containing 10% bovine fetal serum in the presence of 250 μg/ml of G418. The cells were seeded on a 10 cm-diameter petri dish at 1.8×10^6 cells/15 ml, and left to stand in a CO2 incubator (5% CO2, 37° C.) for 24 hours. Thereafter, human CaSR expression plasmid hCaSR/pcDNA3.1 was transfected with transfection reagent Mirus Trans IT 293 (Takara Bio). Following static culture in a CO2 incubator for 24 hours, the cells were harvested with 10% bovine fetal serum-containing DMEM and seeded on a poly-D-lysine coat 384 well plate (Falcon) at 15,000 cells/well. Following static culture in a CO2 incubator for 24 hours, the medium was removed and the resultant was added with 50 μl/well of Ca^2+ fluorescent indicator Calcium 4 Assay Kit (Molecular Devices) dissolved in an assay buffer (146 mM NaCl, 5 mM KCl, 1 mM MgSO4, 1 mg/ml Glucose, 20 mM HEPES (PH 7.2), 1.5 mM CaCl2), and left to stand at 37° C. for an hour and then at room temperature for 30 minutes to allow intake of the indicator. The above-mentioned 384-well plate was transferred to FLIPR (Molecular Devices) and added with 12.5 μl/well of a compound dissolved in a 0.1% BSA-containing assay buffer to measure 3-minute change in the fluorescence intensity.
The difference between maximum and minimum fluorescence intensities before and after compound addition (RFU (Max−Min)) was determined by FLIPR automatic calculation. An activity rate was calculated where RFU (Max−Min) upon addition of a compound at a maximum concentration was defined 100% and RFU (Max−Min) upon addition of DMSO as a substitute for the compound at the same concentration was defined 0%. The rate was subjected to curve fitting using spreadsheet software Xfit to determine EC50 value, i.e., a compound concentration upon 50% activity rate.

The test system of a further experiment is normal mice (C57BL/6J). Put plainly: Effects on gastric emptying using mouse (phenol red method). The format is in vivo. To be noted: 2.4 nmol/kg subcutaneously, 24 h fasted mice, phenol red 15 min after drug, stomach resected 20 min later; vehicle 82.4 ± 7.0%. As for the experimental part:
A dosing vehicle (distilled water) or 3 mg/kg of the compound in Example 6 (Compound 1) was orally administered in a forced manner using a mouse sonde to normal mice (C57BL/6J, 7-week-old) after 24 hours of fasting. As positive controls, a group subcutaneously injected with Exendin-4 (Sigma) (2.4 nmol/kg) that was known to have an effect of suppressing gastric emptying was also prepared. 10 ml/kg of dosing vehicle was also orally administered to the mice of the Exendin-4 group. Fifteen minutes after drug administration, phenol red solution (0.5 mg/ml phenol red+1.5% methylcellulose+distilled water) was orally administered in a forced manner at a volume of 5 ml/kg. After another 20 minutes, the stomach was resected from each mouse and phenol red remaining in the stomach was extracted in 0.1N NaOH solution. Absorbance of the extracted solution was determined at 560 nm to quantitate the amount of remaining phenol red (S). While the amount of phenol red (C) extracted from the stomach resected immediately after the administration of phenol red was assumed to be 100%, the amount of remaining phenol red […] with respect to C was calculated, as a gastric emptying volume (%), based on the following expression. Gastric emptying volume(%)=(1−(S/C))×100

pEC50: −log10 of the molar value.

As for `Cc1c(Cl)cc(S(=O)(=O)O)cc1NC(=O)NC[C@H](N)C(=O)O` [Example 14, (2S)-2-amino-3-{[(3-chloro-2-methyl-5-sulfophenyl)carbamoyl]amino}propanoic acid], the “Relative secretion volumes (GLP-1)” value with NCI-H716 cells [1] (2 mM) is on record as 3.54. As to `Cc1c(Cl)cc(NC(=S)NC[C@H](N)C(=O)O)cc1S(=O)(=O)O` [Example 48, (2S)-2-amino-3-{[(3-chloro-4-methyl-5-sulfophenyl)carbamothioyl]amino}propanoic acid], the “Relative secretion volumes (GLP-1)” value in the experiment with NCI-H716 cells [1] (5 mM) is recorded as 15.42. Besides, the “Relative secretion volumes (CCK)” value in the experiment on NCI-H716 cells [2] (1 mM, 30 minutes at 37° C., buffer assumed to be 1.0) was 2.22. In addition, in the experiment with NCI-H716 cells [2] (result in words), the “effect of promoting CCK secretion” value is recorded as “confirmed to have an effect of promoting CCK secretion”. Compound `COc1cc(NC(=O)NC[C@H](N)C(=O)O)cc(C(=O)O)c1` [Example 101, 3-({[(2S)-2-amino-2-carboxyethyl]carbamoyl}amino)-5-methoxybenzoic acid] showed a pEC50 on human CaSR of 5.44. Turning to `N[C@@H](CNC(=O)Nc1cc(S(=O)(=O)O)ccc1F)C(=O)O` [Example 104, (2S)-2-amino-3-{[(2-fluoro-5-sulfophenyl)carbamoyl]amino}propanoic acid], the pEC50 at human CaSR was 6.31. Take “Exendin-4: Positive control (Sigma), known to have an effect of suppressing gastric emptying”: in the experiment with normal mice (C57BL/6J), the Gastric emptying volume is listed as 51.2 ± 4.2% (*).
